What is called melting point is the temperature of the solid-liquid transition.

Structures can show the parent of a compound that is named as a salt.

As to `CCOCC(=O)NS(=O)(=O)c1ccc(-c2c(-c3ccccc3)noc2C)cc1.[Na]`, the melting point fell in the range of 207.2 to 210 °C. For `CC(=O)NS(=O)(=O)c1ccc(-n2nc(C(F)(F)F)cc2-c2ccc(Cl)cc2)cc1.[Na]` the value was 269.8 to 272 °C. Consider `CC(=O)NS(=O)(=O)c1ccc(-c2c(-c3ccccc3)noc2C)cc1.[K]`, for which the melting point lay within 279.7 to 283.7 °C.

The compound `COc1ccc2c(c1F)CSc1c(C(F)F)nn(-c3ccc(S(=O)(=O)NC(C)=O)cc3)c1-2.[Na]` came in with a melting point above 300 °C. The result for `COc1ccc2c(c1F)CSc1c(C(F)(F)F)nn(-c3ccc(S(=O)(=O)NC(C)=O)cc3)c1-2.[Na]` reads 183 to 191.1 °C. In the case of `CCC(=O)NS(=O)(=O)c1ccc(-c2c(-c3ccccc3)noc2CO)cc1.[Na]`, the melting point lay within 153.5 to 157.1 °C.

For the compound `CC(=O)NS(=O)(=O)c1ccc(-c2c(-c3cccc(F)c3)noc2C)cc1` (as salt: sodium) [Example 13, N-[[4-[3-(3-Fluorophenyl)-5-methylisoxazol-4-yl]phenyl]sulfonyl]acetamide], the melting point was 112 to 131 °C. `CCCC(=O)NS(=O)(=O)c1ccc(-c2c(-c3ccccc3)noc2C)cc1` (as salt: sodium) [Example 25, N-[[4-(5-Methyl-3-phenylisoxazol-4-yl)phenyl]sulfonyl]butanamide, Sodium Salt] yielded a melting point of 273.5 to 277.7 °C. For `CC(=O)NS(=O)(=O)c1ccc(-c2oc(C)nc2-c2ccccc2)cc1` (as salt: sodium) [Example 49, N-[[4-(2-Methyl-4-phenyloxazol-5-yl)phenyl]sulfonyl]acetamide, Sodium Salt] the value was 259.9 to 260 °C; for `CC(=O)NS(=O)(=O)c1ccc(-n2cc(C(F)(F)F)nc2-c2cccnc2)cc1` [Example 1, N-[[4-[2-(3-Pyridinyl)-4-(trifluoromethyl)-1H-imidazol-1-yl]phenyl]sulfonyl]acetamide], 244 to 246 °C; for `CC(=O)NS(=O)(=O)c1ccc(-n2cc(C(F)(F)F)nc2-c2cncc(C)c2)cc1` [Example 3, N-[[4-[2-(5-Methylpyridin-3-yl)-4-(trifluoromethyl)-1H-imidazol-1-yl]phenyl]sulfonyl]acetamide], 268 to 270 °C. For `CC(=O)[N-]S(=O)(=O)c1ccc(-n2cc(C(F)(F)F)nc2-c2cncc(C)c2)cc1.[Na+]` [Example 4, N-[[4-[2-(5-Methylpyridin-3-yl)-4-(trifluoromethyl)-1H-imidazol-1-yl]phenyl]sulfonyl]acetamide, Sodium Salt] the value was 278 to 281 °C; for `CC(=O)NS(=O)(=O)c1ccc(-n2cc(C(F)(F)F)nc2-c2cccnc2C)cc1` [Example 5, N-[[4-[2-(2-Methylpyridin-3-yl)-4-(trifluoromethyl)-1H-imidazol-1-yl]phenyl]sulfonyl]acetamide], 243 to 245 °C. For `CCCC(=O)NS(=O)(=O)c1ccc(-n2cc(C(F)(F)F)nc2-c2cncc(C)c2)cc1` [Example 7, N-[[4-[2-(5-Methylpyridin-3-yl)-4-(trifluoromethyl)-1H-imidazol-1-yl]phenyl]sulfonyl]butanamide], the melting point lay within 203 to 204 °C.

The compound `CCCC(=O)NS(=O)(=O)c1ccc(-n2cc(C(F)(F)F)nc2-c2cccnc2C)cc1` [Example 9, N-[[4-[2-(2-Methylpyridin-3-yl)-4-(trifluoromethyl)-1H-imidazol-1-yl]phenyl]sulfonyl]butanamide] displayed a melting point of 250 to 252 °C. The result for `CC(=O)NS(=O)(=O)c1ccc(-n2cc(C(F)(F)F)nc2-c2cc(C)cc(Cl)c2)cc1` [Example 11, N-[[4-[2-(3-Chloro-5-methylphenyl)-4-(trifluoromethyl)-1H-imidazol-1-yl]phenyl]sulfonyl]acetamide] reads 232 to 235 °C. Regarding `Cc1onc(-c2ccccc2)c1-c1ccc(S(=O)(=O)NC(=O)C(C)C)cc1` [Example 15, 2-Methyl-N-[[4-(5-methyl-3-phenylisoxazol-4-yl)phenyl]sulfonyl]propanamide], the melting point lay in the range of 115 to 115.6 °C. The result for `Cc1onc(-c2ccccc2)c1-c1ccc(S(=O)(=O)NC(=O)c2ccccc2)cc1` [Example 19, N-[[4-(5-Methyl-3-phenylisoxazol-4-yl)phenyl]sulfonyl]benzamide] reads 208.8 to 210.2 °C. The result for `Cc1onc(-c2ccccc2)c1-c1ccc(S(=O)(=O)NC(=O)C(C)(C)C)cc1` [Example 21, 2,2-Dimethyl-N-[[4-(5-methyl-3-phenylisoxazol-4-yl)phenyl]sulfonyl]propanamide] reads 190.5 to 191.1 °C; that for `COC(=O)CCC(=O)NS(=O)(=O)c1ccc(-c2c(-c3ccccc3)noc2C)cc1` [Example 23, Methyl 4-[[[4-(5-methyl-3-phenylisoxazol-4-yl]phenyl]sulfonyl]amino]-4-oxobutanoate], 114.9 to 117.7 °C; that for `CCCC(=O)NS(=O)(=O)c1ccc(-c2c(-c3ccccc3)noc2C)cc1` [Example 24, N-[[4-(5-Methyl-3-phenylisoxazol-4-yl)phenyl]sulfonyl]butanamide], 173.2 °C. For `CCCCC(=O)NS(=O)(=O)c1ccc(-c2c(-c3ccccc3)noc2C)cc1` [Example 26, N-[[4-(5-Methyl-3-phenylisoxazol-4-yl)phenyl]sulfonyl]pentanamide] the value was 134.1 to 136.5 °C; for `COCCC(=O)NS(=O)(=O)c1ccc(-c2c(-c3ccccc3)noc2C)cc1` [Example 29, 3-Methoxy-N-[[4-(5-methyl-3-phenylisoxazol-4-yl)phenyl]sulfonyl]propanamide], 139.7 to 140.9 °C.

On to `CCOCC(=O)NS(=O)(=O)c1ccc(-c2c(-c3ccccc3)noc2C)cc1` [Example 31, 2-Ethoxy-N-[[4-(5-methyl-3-phenylisoxazol-4-yl)phenyl]sulfonyl]acetamide], for which the melting point was 131.3 to 132.2 °C. Turning to `CCC(=O)NS(=O)(=O)c1ccc(-n2nc(C(F)(F)F)cc2-c2ccc(Cl)cc2)cc1` [Example 33, N-[[4-[5-(4-Chlorophenyl)-3-(trifluoromethyl)-1H-pyrazol-1-yl]phenyl]sulfonyl]propanamide], the melting point is 77.9 to 85.1 °C. As to `CC(=O)NS(=O)(=O)c1ccc(-n2nc(C(F)(F)F)cc2-c2ccc(Cl)cc2)cc1` [Example 37, N-[[4-[5-(4-Chlorophenyl)-3-(trifluoromethyl)-1H-pyrazol-1-yl]phenyl]sulfonyl]acetamide], the melting point is 161.9 to 162.7 °C. For `CC(=O)NS(=O)(=O)c1ccc(-c2c(-c3ccccc3)noc2C)cc1` [Example 39, N-[[4-[5-Methyl-3-phenylisoxazol-4-yl]phenyl]sulfonyl]acetamide] the value was 169.3 to 170.6 °C; for `COc1ccc(-c2cc(C(F)F)nn2-c2ccc(S(=O)(=O)NC(C)=O)cc2)cc1F` [Example 46, N-[[4-[3-(Difluoromethyl)-5-(3-fluoro-4-methoxyphenyl)-1H-pyrazol-1-yl]phenyl]sulfonyl]acetamide], 173 to 175 °C. For `CC(=O)NS(=O)(=O)c1ccc(-c2oc(C)nc2-c2ccccc2)cc1` [Example 48, N-[[4-(2-Methyl-4-phenyloxazol-5-yl)phenyl]sulfonyl]acetamide] the value was 220.7 to 221 °C; for `COC(=O)C(=O)NS(=O)(=O)c1ccc(-c2c(-c3ccccc3)noc2C)cc1` [Example 50, Methyl [[[4-(5-methyl-3-phenylisoxazol-4-yl)phenyl]sulfonyl]amino]oxoacetate], 171.1 to 172.3 °C; for `CCC(=O)NS(=O)(=O)c1ccc(-c2c(-c3ccccc3)noc2C(F)F)cc1` [Example 54, N-[[4-[5-(Difluoromethyl)-3-phenylisoxazol-4-yl]phenyl]sulfonyl]propanamide], 136.9 to 141 °C.

The compound `CCCC(=O)NS(=O)(=O)c1ccc(-c2c(-c3ccccc3)noc2C(F)F)cc1` [Example 56, N-[[4-[5-(Difluoromethyl)-3-phenylisoxazol-4-yl]phenyl]sulfonyl]butanamide] returned a melting point of 154.9 to 155.9 °C. For the compound `Cc1onc(-c2ccccc2)c1-c1ccc(S(=O)(=O)NC(=O)CCC(=O)O)cc1` [Example 58, 4-[[[4-(5-Methyl-3-phenylisoxazol-4-yl)phenyl]sulfonyl]amino]-4-oxobutanoic Acid], the melting point was in the range of 158.4 to 165.4 °C. The result for `Cc1onc(-c2ccccc2)c1-c1ccc(S(=O)(=O)NC=O)cc1` [Example 60, N-[[4-(5-Methyl-3-phenylisoxazol-4-yl)phenyl]sulfonyl]formamide] reads 111 to 122 °C. For `Cc1onc(-c2ccccc2)c1-c1ccc(S(=O)(=O)NC(=O)OC(C)(C)C)cc1` [Example 62, 1,1-Dimethylethyl N-[[4-(5-methyl-3-phenylisoxazol-4-yl)phenyl]sulfonyl]carbamate] the value was 168 to 171 °C. The result for `CNS(=O)(=O)c1ccc(C2=C(c3ccc(F)cc3)CCC2)cc1` [Example 64, 4-[2-(4-Fluorophenyl)cyclopenten-1-yl]-N-methylbenzenesulfonamide] reads 121 to 122 °C. `CC(=O)NS(=O)(=O)c1ccc(C2=C(c3ccc(F)c(Cl)c3)CCC2)cc1` [Example 65, N-[[4-[2-(3-Chloro-4-fluorophenyl)cyclopenten-1-yl]phenyl]sulfonyl]acetamide] came in with a melting point of 127 to 129 °C. As for `CCC(=O)NS(=O)(=O)c1ccc(-c2c(C)c(C)nn2-c2ccccc2)cc1` [Example 68, N-[[4-[3,4-Dimethyl-1-phenyl-1H-pyrazol-5-yl]phenyl]sulfonyl]propanamide], the melting point was 187.4 to 188.7 °C.

Regarding `CC(=O)NS(=O)(=O)c1ccc(-c2c(-c3ccccc3)noc2COC(C)=O)cc1` [Example 73, N-[[4-[5-Acetoxymethyl-3-phenylisoxaxzol-4-yl]phenyl]sulfonyl]acetamide], the melting point fell in the range of 137 to 139 °C. The result for `CC(=O)NS(=O)(=O)c1ccc(-c2c(-c3ccccc3)noc2CO)cc1` [Example 74, N-[[4-[5-Hydroxymethyl-3-phenylisoxaxzol-4-yl]phenyl]sulfonyl]acetamide] reads 94 to 103 °C.
